According to article PMC4666032, “KPT-330, a potent and selective exportin-1 (XPO-1) inhibitor, shows antitumor effects modulating the expression of cyclin D1 and survivin in prostate cancer models” (BMC Cancer, 2015):

How the values were obtained:
Format in all cases: cell-based
[1] = system: 22rv1; assay: Growth/viability assay, IC50 at 72 h; conditions: Homo sapiens
Description: (§1) Four commercial (LnCaP, 22rv1, DU145 and PC3) and twelve non-commercial (LAPC-4 [44], CWR22, PCb2 [45], PC3Lymphnode, PC3M, PC3M-pro4 [46] and PC3M-Ln4 [47], LnCaP-104S [47], LnCaP104R1 [47], LnCaP-C81 [47], C4-2B [48], VCAP [49] and DuCaP [[49]) cell lines were selected for the in vitro experimental studies for their biological characteristics: LAPC-4 (Androgen receptor [AR] positive, androgen dependent with low Akt/mTOR activities, p53 wt); LnCaP (AR positive, androgen dependent with high Akt/mTOR activities, p53 wt); LnCaP-C81 and LnCaP-C4-2B (AR positive, androgen independent with high Akt/mTOR activities, p53 wt); 22rv1 (AR positive, androgen independent with low Akt/mTOR activities, p53 wt); PC3 (AR negative, with high Akt/mTOR activities and no p53 function (p53 del) and DU145 (AR negative, with low Akt/mTOR activities and mutant p53). PC3 and DU145 have been also transfected with AR to obtain PC3AR [50] and DU-AR [51]. Benign prostatic hyperplasia line (BPH1), and Prostatic epithelial lines (EPN and RWPE-1) were used as non-neoplastic controls. Cells were routinely cultured in appropriate medium supplemented with 10 % fetal bovine serum (FBS), 1 % pen-strep and 1 % L-glutamine (Invitrogen Corporation, Carlsbad, CA). To minimize the risk to work with misidentified and/or contaminated cell lines, DNA profiling was periodically carried out in-house to authenticate cell cultures. DNA was isolated from cell lines using a standard DNA isolation kit. STR profiling was performed by using GenePrint® 10 System (Promega Corporation, Madison, WI). An eight-capillary 3500 Genetic Analyzer (Applied Biosystems Life Technologies Europe BV, Monza, Italy) was used to separate and identify alleles using standard procedures. GenePrint® 10 System allows co-amplification and detection of eight human loci required by the guidelines ASN-0002. For non-commercial cell lines, the authentication process was carried out by comparing STR-fingerprints with those published by Adri van Bokhoven and co-workers. In addition, cell lines were stocked at very low passages and used at <15-20 subcultures.
(§2) Cells were seeded at a density of 2 x 10^4 cells/mL in 24-well plates. Cells were left to attach and grow in 5 % FCS DMEM for 24 h. After this time, cells were maintained in the appropriate culture conditions. Morphological controls were performed every day with an inverted phase-contrast photomicroscope (Nikon Diaphot, Tokyo, Japan) before cell trypsinization and counting. Cells were trypsinized and resuspended in 1.0 ml of saline, then counted using a NucleoCounter™ NC-100 (automated cell counter systems, Chemotec, Gydevang, Denmark). The effect on cell proliferation was measured by taking the mean cell number with respect to controls over time for the different treatment groups.
(§3) Viable cells were counted by using the NucleoCounter™ NC-100 (automated cell counter systems, Chemotec, Cydevang, DK). Apoptosis was evaluated by using Tali® Apoptosis Kit - Annexin V Alexa Fluor® 488 & Propidium Iodide-based, (Life Technologies Italia, Monza, Italy). Stained cells were then measured on a Tali® Image-Based Cytometer. Apoptosis was further confirmed by FACS analysis following the instructions of the manufacturer.
(§4) Six SINE analogs KPT-127, KPT-185, KPT-205, KPT-227, KPT251 and KPT-330 sharing a trifluoromethyl phenyl triazole scaffold, were investigated for their growth inhibitory and apoptotic potential in our PCa cell panel. Therefore, the effects of these XPO1 inhibitors were evaluated on the growth of PCa cell lines performing dose- and time-dependent studies. To examine the dose-dependent effects of these compounds, we treated cells with varying doses of the compounds (0, 1, 10, 50, 100, 500 and 1000 nM) and assessed viability at 72 hours after treatment. The IC50 for each compound was then calculated. […]

[2] = system: BPH-1; assay: Growth/viability assay, IC50 at 72 h; conditions: Homo sapiens
Description: as §1, §2, §3, §4

[3] = system: C4-2B; assay: Growth/viability assay, IC50 at 72 h; conditions: Homo sapiens, Fig. 2g
Description: as §1, §2, §3, §4

[4] = system: CWR22; assay: Growth/viability assay, IC50 at 72 h; conditions: Homo sapiens; CWR22, Fig. 2g
Description: as §1, §2, §3, §4

[5] = system: DU-AR; assay: Growth/viability assay, IC50 at 72 h; conditions: Homo sapiens, Fig. 2g
Description: as §1, §2, §3, §4

[6] = system: DU145; assay: Growth/viability assay, IC50 at 72 h; conditions: Homo sapiens, DU-145; DU145, Fig. 2g
Description: as §1, §2, §3, §4

[7] = system: DuCaP; assay: Growth/viability assay, IC50 at 72 h; conditions: Homo sapiens, Fig. 2g
Description: as §1, §2, §3, §4

[8] = system: EPN; assay: Growth/viability assay, IC50 at 72 h; conditions: Homo sapiens, Fig. 2g
Description: as §1, §2, §3, §4

[9] = system: LAPC-4; assay: Growth/viability assay, IC50 at 72 h; conditions: Homo sapiens
Description: as §1, §2, §3, §4

[10] = system: LnCaP-104S; assay: Growth/viability assay, IC50 at 72 h; conditions: Homo sapiens, Fig. 2g
Description: as §1, §2, §3, §4

[11] = system: LnCaP-C81; assay: Growth/viability assay, IC50 at 72 h; conditions: Homo sapiens; C-81, Fig. 2g
Description: as §1, §2, §3, §4

[12] = system: LnCaP104R1; assay: Growth/viability assay, IC50 at 72 h; conditions: Homo sapiens; 104R1, Fig. 2g
Description: as §1, §2, §3, §4

[13] = system: LnCaP; assay: Growth/viability assay, IC50 at 72 h; conditions: Homo sapiens
Description: as §1, §2, §3, §4

[14] = system: PC3AR; assay: Growth/viability assay, IC50 at 72 h; conditions: Homo sapiens, PC3/AR, Fig. 2g
Description: as §1, §2, §3, §4

[15] = system: PC3M-Ln4; assay: Growth/viability assay, IC50 at 72 h; conditions: Homo sapiens; PC3M-Ln4, Fig. 2g
Description: as §1, §2, §3, §4

[16] = system: PC3M-pro4; assay: Growth/viability assay, IC50 at 72 h; conditions: Homo sapiens; PC3M-pro4, Fig. 2g
Description: as §1, §2, §3, §4

[17] = system: PC3; assay: Growth/viability assay, IC50 at 72 h; conditions: Homo sapiens, PC-3
Description: as §1, §2, §3, §4

[18] = system: PCb2; assay: Growth/viability assay, IC50 at 72 h; conditions: Homo sapiens; PCb2, Fig. 2g
Description: as §1, §2, §3, §4

[19] = system: RWPE-1; assay: Growth/viability assay, IC50 at 72 h; conditions: Homo sapiens; RWPE-1, Fig. 2g
Description: as §1, §2, §3, §4

[20] = system: VCaP; assay: Growth/viability assay, IC50 at 72 h; conditions: Homo sapiens, Fig. 2g
Description: as §1, §2, §3, §4

[21] = system: PCa cell lines; assay: Growth inhibition across the PCa cell panel; conditions: Homo sapiens; 72 hours, range across the cell panel; read-out: IC50 values, range over PCa cell lines
Description: as §1, with “STR profiling was performed by using GenePrint® 10 System (Promega Corporation, Madison, WI). An eight-capillary 3500 Genetic Analyzer (Applied Biosystems Life Technologies Europe BV, Monza, Italy) was used to separate and identify alleles using standard procedures. GenePrint® 10 System allows co-amplification and detection of eight human loci required by the guidelines ASN-0002. For non-commercial cell lines, the authentication process was carried out by comparing STR-fingerprints with those published by Adri van Bokhoven and co-workers. In addition, cell lines were stocked at very low passages and used at <15-20 subcultures.” left out
Cells were seeded at a density of 2 x 10^4 cells/mL in 24-well plates. […] Cells were trypsinized and resuspended in 1.0 ml of saline, then counted using a NucleoCounter™ NC-100 (automated cell counter systems, Chemotec, Gydevang, Denmark). The effect on cell proliferation was measured by taking the mean cell number with respect to controls over time for the different treatment groups.
Viable cells were counted by using the NucleoCounter™ NC-100 (automated cell counter systems, Chemotec, Cydevang, DK). Apoptosis was evaluated by using Tali® Apoptosis Kit - Annexin V Alexa Fluor® 488 & Propidium Iodide-based, (Life Technologies Italia, Monza, Italy). Stained cells were then measured on a Tali® Image-Based Cytometer. […]
as §4

CC(C)OC(=O)/C=C\n1cnc(-c2cccc(Cl)c2)n1 [KPT-127]
IC50 ([1]; 22rv1, 72 hours, Fig. 2a-f): 100 ± 10 nM
IC50 ([1]; 22rv1, Fig. 2g): 100 nM
IC50 ([2]; BPH-1, BPH1, Fig. 2g): > 1000 nM
IC50 ([2]; BPH-1, 72 hours, Fig. 2a-f): > 1000 nM
IC50 [3]: 25 nM
IC50 [4]: 160 nM
IC50 [5]: 47 nM
IC50 [6]: 55 nM
IC50 [7]: 100 nM
IC50 [8]: 800 nM
IC50 ([9]; LAPC4, LAPC-4, Fig. 2g): 201 nM
IC50 ([9]; LAPC4, 72 hours, Fig. 2a-f): 201 ± 15 nM
IC50 [10]: 50 nM
IC50 [11]: 20 nM
IC50 [12]: 30 nM
IC50 ([13]; 72 hours, Fig. 2a-f): 43 ± 4 nM
IC50 ([13]; Fig. 2g): 43 nM
IC50 [14]: 62 nM
IC50 [15]: 55 nM
IC50 [16]: 90 nM
IC50 ([17]; PC3, 72 hours, Fig. 2a-f): 59 ± 3 nM
IC50 ([17]; PC3, Fig. 2g): 59 nM
IC50 [18]: 44 nM
IC50 [19]: 1000 nM
IC50 [20]: 100 nM
IC50 [21]: 43 to 201 nM

CC(C)OC(=O)/C=C\n1cnc(-c2cc(OC(C)C)cc(C(F)(F)F)c2)n1 [KPT-207]
IC50 ([1]; 22rv1, 72 hours, Fig. 2a-f): 78 ± 19 nM
IC50 ([1]; 22rv1, Fig. 2g): 78 nM
IC50 ([2]; BPH-1, BPH1, Fig. 2g): > 1000 nM
IC50 ([2]; BPH-1, 72 hours, Fig. 2a-f): > 1000 nM
IC50 [3]: 144 nM
IC50 [4]: 133 nM
IC50 [5]: 65 nM
IC50 [6]: 90 nM
IC50 [7]: 120 nM
IC50 [8]: 750 nM
IC50 ([9]; LAPC4, LAPC-4, Fig. 2g): 115 nM
IC50 ([9]; LAPC4, 72 hours, Fig. 2a-f): 101 ± 1 nM
IC50 [10]: 80 nM
IC50 [11]: 160 nM
IC50 [12]: 100 nM
IC50 ([13]; 72 hours, Fig. 2a-f): 113 ± 12 nM
IC50 ([13]; Fig. 2g): 301 nM
IC50 [14]: 80 nM
IC50 [15]: 60 nM
IC50 [16]: 125 nM
IC50 ([17]; PC3, 72 hours, Fig. 2a-f): 74 ± 5 nM
IC50 ([17]; PC3, Fig. 2g): 74 nM
IC50 [18]: 67 nM
IC50 [19]: 820 nM
IC50 [20]: 130 nM

COc1cc(-c2ncn(/C=C\C(=O)OC(C)C)n2)cc(C(F)(F)F)c1 [KPT-185]
IC50 ([1]; 22rv1, 72 hours, Fig. 2a-f): 189 ± 84 nM
IC50 ([1]; 22rv1, Fig. 2g): 160 nM
IC50 ([2]; BPH-1, BPH1, Fig. 2g): > 1000 nM
IC50 ([2]; BPH-1, 72 hours, Fig. 2a-f): > 1000 nM
IC50 [3]: 179 nM
IC50 [4]: 230 nM
IC50 [5]: 143 nM
IC50 [6]: 177 nM
IC50 [7]: 270 nM
IC50 [8]: 1000 nM
IC50 ([9]; LAPC4, LAPC-4, Fig. 2g): 321 nM
IC50 ([9]; LAPC4, 72 hours, Fig. 2a-f): 321 ± 105 nM
IC50 [10]: 240 nM
IC50 [11]: 200 nM
IC50 [12]: 260 nM
IC50 ([13]; 72 hours, Fig. 2a-f): 268 ± 34 nM
IC50 ([13]; Fig. 2g): 268 nM
IC50 [14]: 233 nM
IC50 [15]: 200 nM
IC50 [16]: 330 nM
IC50 ([17]; PC3, 72 hours, Fig. 2a-f): 207 ± 44 nM
IC50 ([17]; PC3, Fig. 2g): 207 nM
IC50 [18]: 215 nM
IC50 [19]: 1000 nM
IC50 [20]: 400 nM
IC50 [21]: 180 to 700 nM

COc1cc(-c2ncn(/C=C\c3nnco3)n2)cc(C(F)(F)F)c1 [KPT-225]
IC50 ([1]; 22rv1, 72 hours, Fig. 2a-f): 204 ± 44 nM
IC50 ([1]; 22rv1, Fig. 2g): 204 nM
IC50 ([2]; BPH-1, BPH1, Fig. 2g): > 1000 nM
IC50 ([2]; BPH-1, 72 hours, Fig. 2a-f): > 1000 nM
IC50 [3]: 170 nM
IC50 [4]: 180 nM
IC50 [5]: 112 nM
IC50 [6]: 135 nM
IC50 [7]: 180 nM
IC50 [8]: 1000 nM
IC50 ([9]; LAPC4, LAPC-4, Fig. 2g): 223 nM
IC50 ([9]; LAPC4, 72 hours, Fig. 2a-f): 223 ± 31 nM
IC50 [10]: 120 nM
IC50 [11]: 180 nM
IC50 [12]: 160 nM
IC50 ([13]; 72 hours, Fig. 2a-f): 171 ± 30 nM
IC50 ([13]; Fig. 2g): 171 nM
IC50 [14]: 144 nM
IC50 [15]: 80 nM
IC50 [16]: 180 nM
IC50 ([17]; PC3, 72 hours, Fig. 2a-f): 122 ± 5 nM
IC50 ([17]; PC3, Fig. 2g): 122 nM
IC50 [18]: 160 nM
IC50 [19]: 1000 nM
IC50 [20]: 240 nM
